Patent US20240059703A1 (AMGEN INC., priority 2021, published 2024)
Like-named read-outs stand apart in the source and are kept apart here.

Columns and labels:
[1] = tested on: MIA PaCa-2 (human pancreatic carcinoma) cells; test: Cell Viability Assay (CellTiter-Glo), MIA PaCa-2; format: cell-based
Method: (§1) Serially-diluted compound or DMSO was added to the cells, and plates were incubated at 37° C., 5% CO2 for 72 h. Cell viability was measured using a CellTiter-Glo® Luminescent Cell Viability Assay kit (Promega) according to the manufacturer's protocol. The luminescence signal of treated samples was normalized to DMSO control, and data were analyzed using a 4-parameter logistic model to calculate IC50 values.

[2] = tested on: A549 (human lung carcinoma) cells; test: Cell Viability Assay (CellTiter-Glo), A549; format: cell-based
Method: as §1, with “MIA PaCa-2 (human pancreatic carcinoma; ATCC CRL-1420) or A549 (human lung carcinoma; ATCC CCL-185) cells were cultured in RPMI 1640 medium containing 10% fetal bovine serum and 1× penicillin/streptomycin/L-glutamine. Cells were seeded in 384-well plates at a density of 1.67E+04 cells/mL and incubated at 37° C., 5% CO2, overnight. Serially-diluted” for “Serially-diluted”

[3] = target: KRAS G12C (Homo sapiens (Human), UniProt P01116, C118A/G12C); test: 2 h coupled exchange assay; format: biochemical
Chain of KRAS G12C (P01116 other isoform, or with tags, fused parts or gaps G12C/C118A): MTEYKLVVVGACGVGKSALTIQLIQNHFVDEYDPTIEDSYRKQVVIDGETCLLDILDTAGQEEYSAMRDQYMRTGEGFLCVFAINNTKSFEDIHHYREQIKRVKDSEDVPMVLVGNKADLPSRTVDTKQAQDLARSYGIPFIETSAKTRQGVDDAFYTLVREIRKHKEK
Method: The term “2 h coupled exchange assay” or “20 h coupled exchange assay” as used herein refers to the assay described in the Section entitled “BIOLOGICAL EVALUATION.”

[4] = Avg 2 h Coupled exchange IC50, 2 h compound pre-incubation, SOS-mediated nucleotide exchange
[5] = Avg 2 h Coupled exchange IC50, 2 h compound pre-incubation
[6] = read-out: Avg 2 h Coupled exchange IC50, 2 h compound pre-incubation

SMILES	IC50 ([1]; Homo sapiens, MIA PaCa-2, 72 h) [nM]	IC50 ([2]; Homo sapiens, A549, 72 h) [µM]	IC50 [3, 4] [nM]	IC50 ([1]; 72 h) [nM]	IC50 ([2]; 72 h) [µM]	IC50 [3, 5] [nM]	IC50 [3, 6] [nM]	IC50 ([3]; read-out: Avg 2 h Coupled exchange IC50, 2 h compound pre-incubation, SOS-mediated nucleotide exchange) [nM]
C=CC(=O)N1CC2(CCN(c3nc4c(c(-c5c(C)ccc6[nH]ncc56)c3C#N)CC(C)(C)C4)[C@@H]2C)C1 (atropisomer, axis not shown; (P)) [Example 13-54, (P)-6,6-dimethyl-4-(5-methyl-1H-indazol-4-yl)-2-((5R)-5-methyl-2-(2-propenoyl)-2,6-diazaspiro[3.4]octan-6-yl)-6,7-dihydro-5H-cyclopenta[b]pyridine-3-carbonitrile]	58	> 5	17	–	–	–	–	–
C=CC(=O)N1CC2(CCN(c3nc4c(c(-c5ccc(F)cc5Cl)c3C#N)CCC(c3scnc3C)=C4)C2)C1 (atropisomer, axis not shown; (P)) [Example 23-33, (P)-4-(2-chloro-4-fluorophenyl)-7-(4-methyl-1,3-thiazol-5-yl)-2-(2-(2-propenoyl)-2,6-diazaspiro[3.4]octan-6-yl)-5,6-dihydro-3-quinolinecarbonitrile]	–	–	–	606	> 5	101	–	–
C=CC(=O)N1CC2(CCN(c3nc4ccccc4c(-c4c(C)ccc5[nH]ncc45)c3C=C)C2)C1 (atropisomer, axis not shown; (P)) [Example 26-1, (P)-1-(6-(3-ethenyl-4-(5-methyl-1H-indazol-4-yl)-2-quinolinyl)-2,6-diazaspiro[3.4]octan-2-yl)-2-propen-1-one]	–	–	–	919	> 5	–	140	–
C=CC(=O)N1CC2(CCN(c3nc4c(c(-c5c(C)ccc6cnn(C)c56)c3C)CCN(C3(C)COC3)C4)C2)C1 (atropisomer, axis not shown; (P)) [Example 36-3, (P)-1-(6-(4-(1,6-dimethyl-1H-indazol-7-yl)-3-methyl-7-(3-methyl-3-oxetanyl)-5,6,7,8-tetrahydro-1,7-naphthyridin-2-yl)-2,6-diazaspiro[3.4]octan-2-yl)-2-propen-1-one]	–	–	–	11000	18.8	–	65300	–
C=CC(=O)N1CC2(CCN(c3nc4c(c(-c5c(C)ccc6[nH]ncc56)c3C#N)CC[C@@H](C(F)(F)F)C4)C2)C1 (racemic) [Example 13-10, (7R)-4-(5-methyl-1H-indazol-4-yl)-2-(2-(2-propenoyl)-2,6-diazaspiro[3.4]octan-6-yl)-7-(trifluoromethyl)-5,6,7,8-tetrahydro-3-quinoline-carbonitrile|(7S)-4-(5-methyl-1H-indazol-4-yL)-2-(2-(2-propenoyl)-2,6-diazaspiro[3.4]octan-6-yl)-7-(trifluoromethyl)-5,6,7,8-tetrahydro-3-quinolinecarbonitrile]	–	–	–	246	> 5	–	–	71
C=CC(=O)N1CC2(CCN(c3nc4c(c(-c5c(C)ccc6[nH]ncc56)c3C#N)[C@H](C)O[C@H](C)C4)C2)C1 (racemic) [Example 13-13, (5R,7S)-5,7-dimethyl-4-(5-methyl-1H-indazol-4-yl)-2-(2-(2-propenoyl)-2,6-diazaspiro[3.4]octan-6-yl)-7,8-dihydro-5H-pyrano[4,3-b]pyridine-3-carbonitrile|(5S,7R)-5,7-dimethyl-4-(5-methyl-1H-indazol-4-yl)-2-(2-(2-propenoyl)-2,6-diazaspiro[3.4]octan-6-yl)-7,8-dihydro-5H-pyrano[4,3-b]pyridine-3-carbonitrile]	462	> 5	93	–	–	–	–	–
C=CC(=O)N1CC2(CCN(c3nc4c(c(-c5cccc(C)c5C)n3)CC[C@@H](c3nccs3)C4)C2)C1 (racemic) [Example 22-3, 1-(6-((7R)-4-(2,3-dimethylphenyl)-7-(1,3-thiazol-2-yl)-5,6,7,8-tetrahydro-2-quinazolinyl)-2,6-diazaspiro[3.4]octan-2-yl)-2-propen-1-one|1-(6-((7S)-4-(2,3-dimethylphenyl)-7-(1,3-thiazol-2-yl)-5,6,7,8-tetrahydro-2-quinazolinyl)-2,6-diazaspiro[3.4]octan-2-yl)-2-propen-1-one]	–	–	–	3310	> 5	–	281	–
C=CC(=O)N1CC2(CCN(c3nc4c(c(-c5ncccc5F)c3C#N)CC[C@@H](c3scnc3C)C4)C2)C1 (racemic) [Example 23-57, (7R)-4-(3-fluoro-2-pyridinyl)-7-(4-methyl-1,3-thiazol-5-yl)-2-(2-(2-propenoyl)-2,6-diazaspiro[3.4]octan-6-yl)-5,6,7,8-tetrahydro-3-quinolinecarbonitrile (7S)-4-(3-fluoro-2-pyridinyl)-7-(4-methyl-1,3-thiazol-5-yl)-2-(2-(2-propenoyl)-2,6-diazaspiro[3.4]octan-6-yl)-5,6,7,8-tetrahydro-3-quinolinecarbonitrile]	299	> 5	–	–	–	85	–	–
C=CC(=O)N1CC2(CCN(c3nc4c(c(-c5c(C)ccc6[nH]ncc56)c3C#N)CC(C(C)C)C4)C2)C1 (racemic) [Example 24-1, (6R)-4-(5-methyl-1H-indazol-4-yl)-6-(2-propanyl)-2-(2-(2-propenoyl)-2,6-diazaspiro[3.4]octan-6-yl)-6,7-dihydro-5H-cyclopenta[b]pyridine-3-carbonitrile and (6S) 4-(5-methyl-1H-indazol-4-yl)-6-(2-propanyl)-2-(2-(2-propenoyl)-2,6-diazaspiro[3.4]octan-6-yl)-6,7-dihydro-5H-cyclopenta[b]pyridine-3-carbonitrile]	–	–	–	1120	> 5	–	62	–
C=CC(=O)N1CC2(CCN(c3nc4c(c(-c5c(C)ccc6[nH]ncc56)c3C#N)CCC(C)(C)C4)C2)C1 (single isomer, unassigned) [Example 1-8, (P)-7,7-dimethyl-4-(5-methyl-1H-indazol-4-yl)-2-(2-(2-propenoyl)-2,6-diazaspiro[3,4]octan-6-yl)-5,6,7,8-tetrahydro-3-quinolinecarbonitrile]	–	> 5	14	36.4	–	–	–	–
C=CC(=O)N1CC2(CCN(c3nc4c(c(-c5c(C)ccc6[nH]ncc56)c3C#N)CCC(C)(C)C4)C2)C1 (single isomer, unassigned) [Example 1-10, (M)-7,7-dimethyl-4-(5-methyl-1H-indazol-4-yl)-2-(2-(2-propenoyl)-2,6-diazaspiro[3.4]octan-6-yl)-5,6,7,8-tetrahydro-3-quinolinecarbonitrile]	–	–	6700	2500	2.91	–	–	–
C=CC(=O)N1CC2(CCN(c3nc4c(c(-c5c(C)ccc6[nH]ncc56)c3C)CCC(C)(C)C4)C2)C1 (single isomer, unassigned) [Example 2-11, (P)-1-(6-(3,7,7-trimethyl-4-(5-methyl-1H-indazol-4-yl)-5,6,7,8-tetrahydro-2-quinolinyl)-2,6-diazaspiro[3.4]octan-2-yl)-2-propen-1-one]	53	6.75	27	–	–	–	–	–
C=CC(=O)N1CC2(CCN(c3nc4c(c(-c5cccc6cc(O)ccc56)c3C)CCC(C)(C)C4)C2)C1 (single isomer, unassigned) [Example 2-15, (P)-1-(6-(4-(6-hydroxy-1-naphthalenyl)-3,7,7-trimethyl-5,6,7,8-tetrahydro-2-quinolinyl)-2,6-diazaspiro[3.4]octan-2-yl)-2-propen-1-one]	106	> 5	66	–	–	–	–	–
C=CC(=O)N1CC2(CCN(c3nc4c(c(-c5ccc(F)c6sc(N)nc56)c3C)CCC(C)(C)C4)C2)C1 (single isomer, unassigned) [Example 2-17]	155	> 5	64	–	–	–	–	–
C=CC(=O)N1CC2(CCN(c3nc4c(c(-c5c(C)ccc6cnn(C)c56)c3C)CCC(C)(C)C4)C2)C1 (single isomer, unassigned) [Example 2-21, (P)-1-(6-(4-(1,6-dimethyl-1H-indazol-7-yl)-3,7,7-trimethyl-5,6,7,8-tetrahydro-2-quinolinyl)-2,6-diazaspiro[3.4]octan-2-yl)-2-propen-1-one]	441	> 5	161	–	–	–	–	–
C=CC(=O)N1CC2(CCN(c3nc4c(c(-c5cc(O)cc6ccccc56)c3C#N)[C@H]3CC[C@@H]4C3)C2)C1 (single isomer, unassigned) [Example 2-39]	–	–	9	68	> 5	–	–	–
C=CC(=O)N1CC2(CCN(c3nc4c(c(-c5cc(O)cc6ccccc56)c3C#N)[C@H]3CC[C@@H]4C3)C2)C1 (single isomer, unassigned) [Example 2-40]	–	–	46	529	2	–	–	–
C=CC(=O)N1CC2(CCN(c3nc4c(c(-c5cc(O)cc6cccnc56)c3C#N)C[C@H]3C[C@@H]4C3(C)C)C2)C1 (single isomer, unassigned) [Example 2-45]	> 5000	> 5	77	–	–	–	–	–
C=CC(=O)N1CC2(CCN(c3nc4c(c(-c5cc(O)cc6ncccc56)c3C#N)C[C@H]3C[C@@H]4C3(C)C)C2)C1 (single isomer, unassigned) [Example 2-46]	135	> 5	6	–	–	–	–	–
